According to PubChem BioAssay AID1996:
Converted amounts (≈) assume the structure as drawn. “And” between values parts separate entries of the source, which are not always exact repeats. Equal entries are not always repeated.

Settings: buffer; pH 7.4; 200.0 µM

| SMILES | solubility kinetic |
| --- | --- |
| COC(=O)c1ccccc1N1CCS(=O)(=O)CC1 | > 40.4 µg/mL |
| C[C@H](NC(=O)N1CCC(Cc2ccccc2)CC1)C(=O)O | > 43.6 µg/mL |
| N#Cc1c(-c2ccc(F)cc2)ccnc1N1CCOCC1 | > 42.5 µg/mL |
| Cc1noc(N)c1C1(O)C(=O)Nc2c(Cl)cc(Cl)cc21 (stereo not drawn) | > 47.1 µg/mL |
| COc1cc2c(C#N)c(N3CCCCC3)nc(N)c2c(N)n1 | 39.8 µg/mL (≈ 133 µM) |
| N#Cc1c(SCC(=O)O)nc(N2CCOCC2)c2c1CCCC2 | > 50 µg/mL |
| CC(C)Cc1nc2oc3c(Cl)ncnc3c2c2c1CCCC2 | < 0.2 µg/mL |
| Cc1cc(C)c2c(CN3CCC(C)CC3)cc(=O)oc2c1C | 1.1 µg/mL (≈ 3.67 µM) |
| O=C(COC(=O)c1ccc(O)cc1)NC1CCCCCC1 | > 43.7 µg/mL |
| COc1cc(/C=C(\C#N)C(=O)NCC2CCCO2)ccc1OCCC(C)C (stereo not drawn) | 7.9 µg/mL (≈ 21.2 µM) |
| O=C(Nc1cc2c(cc1Br)OCCO2)c1cccnc1 | > 50.3 µg/mL |
| COc1cccc(NC(=O)C2CC(=O)N(Cc3ccc(C)cc3)C2)c1 (stereo not drawn) | 9.3 µg/mL (≈ 27.5 µM) |
| O=C(CN1CCOCC1)NNC(=S)Nc1ccc(Cl)cc1 | > 49.3 µg/mL |
| Cc1cc(C)c(NC(=S)N(C)C)c(C)c1 | > 33.4 µg/mL |
| CC(=O)c1ccc(O)c(CSc2nncn2C)c1 | > 39.5 µg/mL |
| CCOC(=O)Cc1csc(NC(=O)Nc2ccc(C)cc2)n1 | 3.8 µg/mL (≈ 11.9 µM) |
| CC(=O)N(Cc1ccc(Cl)cc1)c1cnccn1 | > 39.3 µg/mL |
| O=C(O)C1C2CCC(O2)C1C(=O)Nc1ccc(Br)cc1F (stereo not drawn) | > 53.7 µg/mL |
| CCC(C)CN1CCC(CO)(Cc2ccccc2Cl)CC1 (stereo not drawn) | > 46.5 µg/mL |
| Cc1ccc(NC(=O)CN(C)C(=O)/C=C/c2cccc(F)c2)cc1 | 2.2 µg/mL (≈ 6.74 µM) |
| CCOc1ccc2oc(C(=O)N3CCCN(C)CC3)c(C)c2c1.Cl | > 52.9 µg/mL |

| SMILES | solubility kinetic |
| --- | --- |
| O=C(Nc1ccc(Br)c(Br)c1)C1CCCO1 (stereo not drawn) | 38.8 µg/mL (≈ 111 µM) |
| Cc1cc(C(=O)NC(C)C2CCCO2)c(C)o1 (stereo not drawn) | > 35.6 µg/mL |
| CNCCCC12CCC(c3ccccc31)c1ccccc12.Cl | 45.8 µg/mL and > 47.1 µg/mL |
| C=C(C)CNC(=S)Nc1cccc(N)n1 | > 33.3 µg/mL |
| O=C(COC(=O)CC1CCCC1)Nc1ccc(Br)cc1F | 19.2 µg/mL (≈ 53.6 µM) |
| O=C(COc1ccccc1Cl)NCCNC(=O)c1ccco1 | 47.3 µg/mL (≈ 147 µM) |
| O=C(NCCOC(=O)c1ccc(F)cc1)c1ccc(F)cc1 | 10.4 µg/mL (≈ 34.1 µM) |
| O=C1NCCCCC1NS(=O)(=O)c1ccccc1 (stereo not drawn) | > 40.2 µg/mL |
| COCCNC(=O)c1oc2ccc3c(c2c1C)C(O)CC(C)(C)O3 (stereo not drawn) | > 50 µg/mL |
| Cc1cccc(NC(=O)[C@@H]2CCCN2C(=O)OC(C)(C)C)c1C | 39.6 µg/mL (≈ 124 µM) |
| COc1ccc(Nc2ncnc3sccc23)c(OC)c1 | 25.1 µg/mL (≈ 87.4 µM) |
| COc1ccc(NC(=O)N2CCCCCC2)c(OC)c1 | > 41.8 µg/mL |
| CCc1cc(=O)[nH]c(SCC(=O)NCC2CCCO2)n1 (stereo not drawn) | > 44.6 µg/mL |
| CC(C)(C)C(=O)Nc1cccc(S(=O)(=O)NC2=NCCC2)c1 | > 48.5 µg/mL |
| CC(Oc1ccc(Br)cc1Br)C(=O)Nc1cccnc1Cl (stereo not drawn) | < 0.5 µg/mL |
| Cc1ccc(Cl)cc1NC(=O)CCC(=O)O | > 36.3 µg/mL |
| Cc1ccccc1OCCNCC(C)O.O=C(O)C(=O)O (stereo not drawn) | 27 µg/mL |
| O=C(NCC(c1ccco1)N1CCc2ccccc2C1)c1cccc(F)c1 (stereo not drawn) | 28.7 µg/mL (≈ 78.8 µM) |
| CS(=O)(=O)Nc1ccccc1NS(C)(=O)=O | > 39.6 µg/mL |
| Cc1ccc(O)c(NC(=O)C2CCCCC2)c1 | 33.3 µg/mL (≈ 143 µM) |
| CCc1cccc(C)c1NC(=O)Cc1ccsc1 | 34.9 µg/mL (≈ 135 µM) |

| SMILES | solubility kinetic |
| --- | --- |
| O=C(NCCC(=O)N1CCN(c2ccccn2)CC1)c1ccc(Cl)cc1 | > 55.9 µg/mL |
| CCc1ccc(OCCOCCN2CCN(C)CC2)cc1.O=C(O)C(=O)O | 54 µg/mL |
| Cc1cccc(C)c1NC(=O)CNC(=O)c1ccc2c(c1)NC(=O)CS2 | 41 µg/mL (≈ 111 µM) |
| O=C(NC1CCCCC1)C1CC(=O)N(c2cccc([N+](=O)[O-])c2)C1 (stereo not drawn) | 7.8 µg/mL (≈ 23.5 µM) |
| CC(C)=CCN1CCN(Cc2cccc3c2OCO3)CC1CCO (stereo not drawn) | 36.5 µg/mL (≈ 110 µM) |
| Cc1ccc(NC(=O)NCc2cccnc2)cc1Cl | 39.7 µg/mL (≈ 144 µM) |
| CC(C#N)Sc1ccc(S(=O)(=O)N2CCCC2)cn1 (stereo not drawn) | 37.7 µg/mL (≈ 127 µM) |
| COc1cc([N+](=O)[O-])ccc1NC(=O)NCCCN1CCCC1=O | > 50.5 µg/mL |
| Cc1cccc(NC(=O)CCCN2C(=S)NC(C)(C)CC2C)c1C (stereo not drawn) | > 52.1 µg/mL |
| Cc1ccc(C2NC(=S)NC3=C2C(=O)CCC3)cc1 (stereo not drawn) | 9 µg/mL (≈ 33 µM) |
| COc1ccc2c(c1)[nH]c1c(=O)n(Cc3ccncc3)cnc12 | 5.1 µg/mL (≈ 16.6 µM) |
| CC1CCN(CC(=O)N2CCN(c3ccccc3)CC2)CC1 | 40.8 µg/mL (≈ 135 µM) |
| Cc1ccc(NC(=O)CN(C)C(=O)COc2cccc3ccc(C)nc23)cc1 | 3.9 µg/mL (≈ 10.3 µM) |
| Cc1ccc(NC(=O)Cn2c(C)csc2=O)cc1 | > 39.3 µg/mL |
| Brc1cccc(CN2CCCCCC2)c1 | 15.2 µg/mL (≈ 56.7 µM) |
| O=C1CSC(=S)N1c1cccc(Br)c1 | 2.9 µg/mL (≈ 10.1 µM) |
| Cc1ccc(NC(=S)NC(=O)c2cncc(Br)c2)c(C)c1 | 4.5 µg/mL (≈ 12.4 µM) |
| Cc1cccc(NC(=O)NCC(c2ccco2)N2CCCCC2)c1 (stereo not drawn) | > 49.1 µg/mL |
| O=C(OCc1ccc(Cl)c(Cl)c1)c1cccnc1Cl | < 0.7 µg/mL |
| COc1ccc(N(Cc2cc3cc(C)ccc3[nH]c2=O)C(C)=O)cc1 | 47 µg/mL (≈ 140 µM) |

Second part, the molecule after the results:

| solubility kinetic | SMILES |
| --- | --- |
| 46.9 µg/mL (≈ 143 µM) | O=C(CSc1nc(C2CC2)nc2ccccc12)N1CCCCC1 |
| > 51.3 µg/mL | Cc1nc2ccc(Br)cc2c(-c2ccccc2)c1C(=O)O |
| 32.4 µg/mL (≈ 81.5 µM) | COCCCNC(=O)c1ccc(-c2nc3ccccc3nc2-c2ccccc2)cc1 |
| 0.3 µg/mL (≈ 0.782 µM) | Cc1ccccc1C1NC(c2ccccc2C)C([N+](=O)[O-])C(C)(C)C1[N+](=O)[O-] (stereo not drawn) |
| 42.1 µg/mL (≈ 150 µM) | O=C(O)c1ccccc1C(=O)NC1Cc2ccccc2C1 |
| < 0.2 µg/mL | O=C(Nc1nc2ccccc2[nH]1)c1cccc(Cl)c1 |
| > 52.5 µg/mL | O=C(O)c1cccc(NC(=O)c2ccccc2NC(=O)c2ccco2)c1 |
| > 50 µg/mL | Cc1ccccc1C(C)NS(=O)(=O)c1ccc2c(c1)OCCO2 (stereo not drawn) |
| 0.6 µg/mL (≈ 1.67 µM) | CCOc1ccccc1Oc1nc(-c2ccccc2O)nc2ccccc12 |
| 6.7 µg/mL (≈ 18.3 µM) | COc1ccc(NC(=O)COC(=O)c2ccc3ccccc3n2)cc1OC |
| 1.4 µg/mL (≈ 3.75 µM) | CN(Cc1ccccc1)S(=O)(=O)c1ccc2c(c1)n(C)c(=O)c(=O)n2C |
| 9.8 µg/mL (≈ 39.8 µM) | Cc1ccccc1Oc1ncnc(N)c1[N+](=O)[O-] |
| 7.3 µg/mL (≈ 20.6 µM) | O=C(Nc1ccc(Br)cc1)c1ccccc1Br |
| 34 µg/mL (≈ 147 µM) | CC(=O)c1c(C(=O)O)c2ccccc2[nH]c1=O |
| > 59.1 µg/mL | NC(=O)C1CCN(C(=O)c2cc(-c3ccc(Cl)cc3)nc3ccccc23)CC1 |
| 10.4 µg/mL (≈ 32.3 µM) | COc1ccccc1N1CCN(c2nc(C)cc(C)c2C#N)CC1 |
| > 47.9 µg/mL | O=C1NC(Cc2c[nH]c3ccccc23)C(=O)N1Cc1ccccc1 (stereo not drawn) |
| 19 µg/mL (≈ 47.1 µM) | CC(C)[C@H](NC(=O)c1ccccc1)C(=O)OCC(=O)Nc1sccc1C(N)=O |
| > 46.9 µg/mL | CCc1ccccc1N1CN(Cc2cccnc2)CNC1=S |

| solubility kinetic | SMILES |
| --- | --- |
| > 48.4 µg/mL | COCCNC(=O)C(=O)c1c(-c2ccccc2)[nH]c2ccccc12 |
| 31.6 µg/mL (≈ 127 µM) | O=C1CNC(=S)N1c1nc2ccccc2s1 |
| 1.2 µg/mL (≈ 3.88 µM) | COc1ccc(-c2ccccc2)cc1NC(=O)c1cccs1 |
| 43.7 µg/mL (≈ 141 µM) | CC(=O)c1cccc(NC(=O)CNC(=O)Cc2ccccc2)c1 |
| 4.1 µg/mL (≈ 9.8 µM) | CCOc1ccccc1C(=O)NCC(=O)OCC(=O)c1c(N)n(C)c(=O)n(C)c1=O |
| > 48.8 µg/mL | O=C(c1cccc([N+](=O)[O-])c1)N1CCN(Cc2ccccc2)CC1 |
| 12.5 µg/mL (≈ 39.4 µM) | CCN(c1cccc2ccccc12)S(=O)(=O)c1cccs1 |
| < 0.2 µg/mL | Cc1ccc2c(c1)c1nc3ccccc3nc1n2C |
| 4 µg/mL (≈ 11.5 µM) | CC(=O)Nc1ccc2nc(NC(=O)c3ccc([N+](=O)[O-])o3)sc2c1 |
| 1.4 µg/mL (≈ 4.29 µM) | O=C(Nc1ccc2c(c1)OCO2)C1CC(c2ccccc2O)=NO1 (stereo not drawn) |
| 33.2 µg/mL (≈ 124 µM) | COc1cccc(/C=N/c2nc3ccccc3[nH]2)c1O |
| < 0.2 µg/mL | Cn1c(/C(C#N)=C(\O)c2ccc([N+](=O)[O-])s2)nc2ccccc21 |
| > 52.3 µg/mL | O=C(COc1ncnc2ccccc12)N1CCN(c2ccccc2)CC1 |
| 33.5 µg/mL (≈ 96.2 µM) | CC1CCN(C(=O)c2ccc(N3C(=O)c4ccccc4C3=O)cc2)CC1 |
| 41.6 µg/mL (≈ 129 µM) | O=C(c1ccc2c(c1)OCO2)N1CCC(Cc2ccccc2)CC1 |
| 0.9 µg/mL (≈ 3.55 µM) | Cc1cc2ccccn2c1C(=O)c1ccc(F)cc1 |
| 2.9 µg/mL (≈ 6.21 µM) | COc1ccc(NC(=O)CN(c2ccccc2OC)S(=O)(=O)c2cccs2)cc1Cl |
| 1.2 µg/mL (≈ 3.41 µM) | CCCCn1c(-c2cccs2)nc2oc3ccccc3c(=O)c2c1=O |
| > 52.1 µg/mL | CC1=Nc2ccccc2N=C(NC(=O)/C=C/C(=O)O)C1c1ccccc1 (stereo not drawn) |

| solubility kinetic | SMILES |
| --- | --- |
| 46.4 µg/mL (≈ 140 µM) | O=C(NCc1ccco1)c1cc([N+](=O)[O-])ccc1N1CCOCC1 |
| > 43.7 µg/mL | CN1CCC(N(C)C(=O)Cc2ccccc2[N+](=O)[O-])CC1 |
| > 45.5 µg/mL | COc1ccc(C(C)=O)cc1Cn1nc(C)c([N+](=O)[O-])c1C |
| 3.7 µg/mL (≈ 10.6 µM) | O=C(OCC(=O)N1CCc2ccccc21)c1ccc(Br)o1 |
| 2.9 µg/mL (≈ 10 µM) | NC(=O)c1ccccc1NCC(=O)c1ccc(Cl)cc1 |
| > 50.5 µg/mL | O=C(OCC(=O)c1ccccc1)C1=NN(c2ccccc2)C(=O)CC1 |
| 0.8 µg/mL (≈ 2.35 µM) | CC(=O)c1cccc(NC(=O)CCn2c(=S)oc3ccccc32)c1 |
| 44.9 µg/mL (≈ 102 µM) | Cc1ccccc1-c1nc(S(=O)(=O)c2ccccc2)c(NCCCN2CCOCC2)o1 |
| 6 µg/mL (≈ 27.9 µM) | O=C(Nc1nc2ccccc2[nH]1)C1CCC1 |
| 65.2 µg/mL (≈ 134 µM) | CN(CC(=O)Nc1ccccc1Cl)CC(=O)N(C)c1c(N)n(Cc2ccccc2)c(=O)[nH]c1=O |
| 6 µg/mL (≈ 19.3 µM) | Cc1cccc(C)c1NC(=O)CN1C(=O)COc2ccccc21 |
| 38.7 µg/mL (≈ 129 µM) | CN(CC(=O)NCCc1ccc(F)cc1)Cc1ccccc1 |
| > 39.3 µg/mL | O=[N+]([O-])c1cccc(CSc2cccc[n+]2[O-])c1 |
| > 48.7 µg/mL | O=C(CN1C(=O)c2cccc3cccc(c23)C1=O)N1CCOCC1 |
| 13.3 µg/mL (≈ 48.5 µM) | O=C(OCC(=O)c1ccc[nH]1)c1ccc([N+](=O)[O-])cc1 |
| 6.7 µg/mL (≈ 14.8 µM) | CCCc1cc(=O)[nH]c(SCC(=O)Nc2ccc(C(=O)Nc3ccccc3OC)cc2)n1 |
| > 32 µg/mL | Cn1c2c(c(=O)c3ccccc31)CCCC2 |
| > 49.4 µg/mL | CN1C(=O)NC(c2ccc([N+](=O)[O-])cc2)C2=C1CC(C)(C)CC2=O (stereo not drawn) |
